Results: patent publication US7855213B2 (AstraZeneca AB, priority 2006, dated 2010)
Counter-ions that a name gives are not always drawn.

Biological target: T1, human β-Secretase (Homo sapiens, UniProt P56817)
T1 construct: The soluble part of the human β-Secretase (AA 1-AA 460) was cloned; made in house
Experiment: TR-FRET assay
Format: biochemical

T1 sequence (P56817 22-460): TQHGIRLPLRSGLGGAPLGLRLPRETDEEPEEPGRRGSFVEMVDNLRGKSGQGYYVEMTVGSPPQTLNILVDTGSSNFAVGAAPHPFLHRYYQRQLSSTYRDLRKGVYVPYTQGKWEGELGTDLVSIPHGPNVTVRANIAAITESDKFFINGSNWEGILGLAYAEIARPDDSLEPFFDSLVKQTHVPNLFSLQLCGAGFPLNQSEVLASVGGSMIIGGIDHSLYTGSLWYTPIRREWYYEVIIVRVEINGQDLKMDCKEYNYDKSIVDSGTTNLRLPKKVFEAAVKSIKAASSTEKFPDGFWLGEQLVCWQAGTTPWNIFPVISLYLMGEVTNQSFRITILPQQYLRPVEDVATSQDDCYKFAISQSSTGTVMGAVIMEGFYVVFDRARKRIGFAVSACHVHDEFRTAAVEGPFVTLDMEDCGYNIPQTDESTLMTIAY

| SMILES | IC50 [nM] |
| --- | --- |
| COc1cccc(-c2cccc(C3(c4ccc5c(c4)OCCO5)N=C(N)c4ccccc43)c2)c1 (stereo not drawn) [Example 27, 3-(2,3-Dihydrobenzo[b][1,4]dioxin-6-yl)-3-(3′-methoxybiphenyl-3-yl)-3H-isoindol-1-amine trifluoroacetate] | 1060 |
| COc1ncc(C2(c3cccc(-c4cncnc4)c3)N=C(N)c3ccccc32)cn1 (stereo not drawn) [Example 108, 1-(2-Methoxypyrimidin-5-yl)-1-(3-pyrimidin-5-ylphenyl)-1H-isoindol-3-amine] | 970 |
| CC(C)C1(c2cccc(-c3cncnc3)c2)N=C(N)c2ccccc21 (stereo not drawn) [Example 97, 1-Isopropyl-1-(3-pyrimidin-5-ylphenyl)-1H-isoindol-3-amine acetate] | 1000 |
| N#Cc1ccc(C2(c3cccc(-c4cccnc4F)c3)N=C(N)c3ccccc32)cc1 (stereo not drawn) [Example 65, 4-{3-Amino-1-[3-(2-fluoropyridin-3-yl)phenyl]-1H-isoindol-1-yl}benzonitrile] | 400 |
| COc1cccc(-c2cc(C3(c4ccncc4F)N=C(N)c4ccccc43)ccc2F)c1F (stereo not drawn) [Example 101, 1-(2′,6-Difluoro-3′-methoxybiphenyl-3-yl)-1-(3-fluoropyridin-4-yl)-1H-isoindol-3-amine] | 230 |
| NC1=NC(c2ccc(C(F)(F)F)cc2)(c2cccc(-c3cncc(F)c3)c2)c2ccccc21 (stereo not drawn) [Example 59, 1-[3-(5-Fluoropyridin-3-yl)phenyl]-1-[4-(trifluoromethyl)phenyl]-1H-isoindol-3-amine 0.25 acetate] | 630 |
| COc1ccc(C2(c3ccc(F)c(-c4cncnc4)c3)N=C(N)c3ccccc32)cc1C (stereo not drawn) [Example 127, 1-(4-Fluoro-3-pyrimidin-5-ylphenyl)-1-(4-methoxy-3-methylphenyl)-1H-isoindol-3-amine] | 33 |
| COc1cccc(-c2cccc(C3(c4ccc5c(c4)OCO5)N=C(N)c4ccccc43)c2)c1 (stereo not drawn) [Example 33, 3-Benzo[1,3]dioxol-5-yl-3-(3′-methoxy-biphenyl-3-yl)-3H-isoindol-1-ylamine trifluoroacetate] | 1330 |
| COc1cccc(-c2cccc(C3(c4ccc(OC)c(C)c4)N=C(N)c4ccccc43)c2)c1 (stereo not drawn) [Example 20, 3-(3′-Methoxy-biphenyl-3-yl)-3-(4-methoxy-3-methyl-phenyl)-3H-isoindol-1-ylamine trifluoroacetate] | 101 |
| NC1=NC(c2ccc(C(F)(F)F)cc2)(c2cccc(-c3cncnc3)c2)c2ccccc21 (stereo not drawn) [Example 60, 1-(3-Pyrimidin-5-ylphenyl)-1-[4-(trifluoromethyl)phenyl]1H-isoindol-3-amine 0.25 acetate] | 570 |
| NC1=NC(c2cccc(-c3cccnc3)c2)(c2ccc3c(c2)OCCO3)c2ccccc21 (stereo not drawn) [Example 17, 3-(2,3-Dihydrobenzo[b][1,4]dioxin-6-yl)-3-(3-(pyridin-3-yl)phenyl)-3H-isoindol-1-amine trifluoroacetate] | 1520 |
| NC1=NC(c2cccc(OS(=O)(=O)c3c(F)cccc3F)c2)(c2cc(Cl)nc(Cl)c2)c2ccccc21 (stereo not drawn) [Example 133, 3-[3-Amino-1-(2,6-dichloropyridin-4-yl)-1H-isoindol-1-yl]phenyl 2,6-difluorobenzenesulfonate] | 3240 |
| COc1cc(OS(C)(=O)=O)cc(-c2cccc(C3(c4ccc5c(c4)OCO5)N=C(N)c4ccccc43)c2)c1 (stereo not drawn) [Example 34, Methanesulfonic acid 3′-(3-amino-1-benzo[1,3]dioxol-5-yl-1H-isoindol-1-yl)-5-methoxy-biphenyl-3-yl ester trifluoroacetate] | 1090 |
| COc1ccc(C2(c3cccc(-c4cncnc4)c3)N=C(N)c3ccccc32)cc1 (stereo not drawn) [Example 13, 3-(4-Methoxy-phenyl)-3-(3-pyrimidin-5-yl-phenyl)-3H-isoindol-1-ylamine trifluoroacetate] | 106 |
| NC1=NC(c2ccc(C(F)(F)F)nc2)(c2cccc(-c3cncnc3)c2)c2ccccc21 (stereo not drawn) [Example 130, 1-(3-Pyrimidin-5-ylphenyl)-1-[6-(trifluoromethyl)pyridin-3-yl]-1H-isoindol-3-amine 0.66 acetate] | 1300 |
| COc1ccc(C2(c3cccc(-c4cccc(OC)c4)c3)N=C(N)c3ccc(F)cc32)cc1 (stereo not drawn) [Example 80, 6-Fluoro-1-(3′-methoxybiphenyl-3-yl)-1-(4-methoxyphenyl)-1H-isoindol-3-amine] | 84 |
| NC1=NC(c2ccncc2)(c2cccc(-c3cccnc3F)c2)c2cc(F)ccc21 (stereo not drawn) [Example 86, 6-Fluoro-1-[3-(2-fluoropyridin-3-yl)phenyl]-1-pyridin-4-yl-1H-isoindol-3-amine] | 47 |
| COc1ccc(C2(c3cccc(Br)c3)N=C(N)c3ccccc32)cc1C (stereo not drawn) [Example 19, 3-(3-Bromo-phenyl)-3-(4-methoxy-3-methyl-phenyl)-3H-isoindol-1-ylamine trifluoroacetate] | 1360 |
| NC1=NC(c2cccc(OS(=O)(=O)C(F)(F)F)c2)(c2ccc(F)c(-c3cccnc3F)c2)c2ccccc21 (stereo not drawn) [Example 135] | 269 |
| CC1(c2cccc(-c3cccnc3F)c2)N=C(N)c2ccccc21 (stereo not drawn) [Example 96, 1-[3-(2-Fluoropyridin-3-yl)phenyl]-1-methyl-1H-isoindol-3-amine acetate] | 2200 |

| SMILES | IC50 [nM] |
| --- | --- |
| NC1=NC(c2cncc(F)c2)(c2cccc(-c3cncnc3)c2)c2ccccc21 (stereo not drawn) [Example 125, 1-(5-Fluoropyridin-3-yl)-1-(3-pyrimidin-5-ylphenyl)-1H-isoindol-3-amine] | 810 |
| COc1ncc(C2(c3cccc(-c4cccnc4F)c3)N=C(N)c3ccccc32)cn1 (stereo not drawn) [Example 107, 1-[3-(2-Fluoropyridin-3-yl)phenyl]-1-(2-methoxypyrimidin-5-yl)-1H-isoindol-3-amine] | 440 |
| NC1=NC(c2ccncc2)(c2cccc(-c3cncnc3)c2)c2cc(F)ccc21 (stereo not drawn) [Example 84, 6-Fluoro-1-pyridin-4-yl-1-(3-pyrimidin-5-ylphenyl)-1H-isoindol-3-amine] | 94 |
| Cc1nn(C)c(Cl)c1S(=O)(=O)Oc1cccc(C2(c3cc(Cl)nc(Cl)c3)N=C(N)c3ccccc32)c1 (stereo not drawn) [Example 131, 3-[3-Amino-1-(2,6-dichloropyridin-4-yl)-1H-isoindol-1-yl]phenyl 5-chloro-1,3-dimethyl-1H-pyrazole-4-sulfonate] | 1070 |
| COc1cncc(-c2cccc(C3(c4ccc(OS(C)(=O)=O)cc4)N=C(N)c4ccccc43)c2)c1 (stereo not drawn) [Example 39, Methanesulfonic acid 4-{3-amino-1-[3-(5-methoxy-pyridin-3-yl)-phenyl]-1H-isoindol-1-yl}-phenyl ester trifluoroacetate] | 350 |
| NC1=NC(c2ccncc2)(c2ccc(F)c(-c3cncc(F)c3)c2)c2ccccc21 (stereo not drawn) [Example 69, 1-[4-Fluoro-3-(5-fluoropyridin-3-yl)phenyl]-1-pyridin-4-yl-1H-isoindol-3-amine 0.75 acetate] | 99 |
| CC1(c2cccc(-c3cc(Cl)cc(Cl)c3)c2)N=C(N)c2ccccc21 (stereo not drawn) [Example 94, 1-(3′,5′-Dichlorobiphenyl-3-yl)-1-methyl-1H-isoindol-3-amine hydrochloride] | 880 |
| NC1=NC(c2ccncc2)(c2ccc(F)c(-c3cncnc3)c2)c2ccccc21 (stereo not drawn) [Example 68, 1-(4-Fluoro-3-pyrimidin-5-ylphenyl)-1-pyridin-4-yl-1H-isoindol-3-amine 0.5 acetate] | 81 |
| COc1cccc(-c2cccc(C3(c4ccncc4)N=C(N)c4ccccc43)c2)c1F (stereo not drawn) [Example 104, 1-(2′-Fluoro-3′-methoxybiphenyl-3-yl)-1-pyridin-4-yl-1H-isoindol-3-amine] | 59 |
| COc1cncc(-c2cccc(C3(c4ccncc4)N=C(N)c4ccccc43)c2)c1 (stereo not drawn) [Example 46, 3-[3-(5-Methoxy-pyridin-3-yl)-phenyl]-3-pyridin-4-yl-3H-isoindol-1-ylamine trifluoroacetate] | 98 |
| COc1ccc(C2(c3cccc(-c4cccnc4F)c3)N=C(N)c3ccccc32)cc1 (stereo not drawn) [Example 10, 3-[3-(2-Fluoro-pyridin-3-yl)-phenyl]-3-(4-methoxy-phenyl)-3H-isoindol-1-ylamine trifluoroacetate] | 78 |
| NC1=NC(c2cccc(-c3cccnc3F)c2)(c2ccc3c(c2)OCO3)c2ccccc21 (stereo not drawn) [Example 31, 3-Benzo[1,3]dioxol-5-yl-3-[3-(2-fluoropyridin-3-yl)-phenyl]-3H-isoindol-1-ylamine trifluoroacetate] | 768 |
| COc1cncc(-c2cccc(C3(c4ccncc4)N=C(N)c4ccc(F)cc43)c2)c1 (stereo not drawn) [Example 85, 6-Fluoro-1-[3-(5-methoxypyridin-3-yl)phenyl]-1-pyridin-4-yl-1H-isoindol-3-amine] | 45 |
| COc1cccc(-c2cccc(C3(c4ccc(OS(C)(=O)=O)cc4)N=C(N)c4ccccc43)c2)c1 (stereo not drawn) [Example 40, Methanesulfonic acid 4-[3-amino-1-(3′-methoxy-biphenyl-3-yl)-1H-isoindol-1-yl]-phenyl ester trifluoroaceate] | 570 |
| COc1cc(OS(C)(=O)=O)cc(-c2cccc(C3(c4ccc(OS(C)(=O)=O)cc4)N=C(N)c4ccccc43)c2)c1 (stereo not drawn) [Example 41, Methanesulfonic acid 4-[3-amino-1-(5′-methane-sulfonyloxy-3′-methoxy-biphenyl-3-yl)-1H-isoindol-1-yl]-phenyl ester trifluoroacetate] | 575 |
| NC1=NC(c2cccc(-c3cncnc3)c2)(c2ccc3c(c2)OCO3)c2ccccc21 (stereo not drawn) [Example 30, 3-Benzo[1,3]dioxol-5-yl-3-(3-pyrimidin-5-ylphenyl)-3H-isoindol-1-ylamine trifluoroacetate] | 942 |
| NC1=NC(c2ccc(C(F)(F)F)cc2)(c2cccc(-c3cccnc3F)c2)c2ccccc21 (stereo not drawn) [Example 66, 1-[3-(2-Fluoropyridin-3-yl)phenyl]-1-[4-(trifluoromethyl)phenyl]-1H-isoindol-3-amine] | 520 |
| COc1cc(C2(c3cccc(-c4cccnc4F)c3)N=C(N)c3ccccc32)ccn1 (stereo not drawn) [Example 119, 1-[3-(2-Fluoropyridin-3-yl)phenyl]-1-(2-methoxypyridin-4-yl)-1H-isoindol-3-amine] | 110 |
| NC1=NC(c2ccncc2)(c2cccc(-c3ccsc3C=O)c2)c2ccccc21 (stereo not drawn) [Example 61, 3-[3-(3-Amino-1-pyridin-4-yl-1H-isoindol-1-yl)phenyl]thiophene-2-carbaldehyde] | 2000 |
